These are literature values, as cited in patent publication US8580861B2, “Chemical composition for skin care formulations” (Pibed Limited, priority 2008, dated 2013).

Read-outs that look alike come from different tables or passages of the source.

For data set [1], the system named is Microsporum gypseum. To be noted: M. gypseum.
In data set [2] the test system is Microsporum gypseum. Particulars: 10% in Vaseline petroleum jelly, topical, daily for 3 weeks; for histopathologic examination of skin tissues: versus positive control.
The test system of data set [3] is Lactobacillus fermentum. Particulars: flow cytometry. (Flow cytometry measures light scatter and fluorescence of single cells or particles in a stream.)
Data set [4] relates to Staphylococcus aureus. Particulars: low concentrations (0.5 to 2 mM), disk diffusion.
In data set [5] the test system is Escherichia coli.

In general, MIC refers to the least concentration at which growth counts as inhibited. On to `C=CCc1ccc(O)c(OC)c1` [eugenol], for which the MIC in data set [1] is recorded as 0.01-0.03%. Moreover, in data set [2], the skin lesion scoring entry is recorded as “clinically effective at improving the lesion during the first week of application”; the “histopathologic examination of skin tissues” value is “lower degree of hyperkeratosis and inflammatory cell infiltration than the positive control”.

As for `C=CC(C)(O)CCC=C(C)CCC=C(C)C` (centres unmarked) [nerolidol, 3,7,11-trimethyl1,6,10-dodecatrien-3-ol], in data set [3], the “intracellular accumulation of ethidium bromide by live cells” value (“intracellular accumulation” for short) was “promoted the intracellular accumulation”. Moreover, the “susceptibility to ciprofloxacin, clindamycin, erythromycin, gentamicin, tetracycline, and vancomycin” value (“susceptibility to ciprofloxacin” below) in data set [4] is “enhanced the susceptibility of Staphylococcus aureus”. In addition, in data set [1], the MIC was 0.5-2%. In addition, the “sensitization to polymyxin B” value in data set [5] was “sensitized Escherichia coli to polymyxin B”. In data set [2], the hair culture test entry is given as “improved the skin lesions infected by M. gypseum”; the skin lesion scoring entry is “clinically effective at improving the lesion during the first week of application”; the “histopathologic examination of skin tissues” value was “lower degree of hyperkeratosis and inflammatory cell infiltration than the positive control”.

Consider `CC(C)=CCCC(C)=CCCC(C)=CCO` [farnesol], for which the “intracellular accumulation” value in data set [3] is reported as “promoted the intracellular accumulation”. The “sensitization to polymyxin B” value in data set [5] was “sensitized Escherichia coli to polymyxin B”.

As for `CC(C)=CCC[C@](C)(O)C1CC=C(C)CC1` (some centres unmarked) [bisabolol], the “intracellular accumulation” value in data set [3] is listed as “promoted the intracellular accumulation”. In data set [4], the “susceptibility to ciprofloxacin” value is given as “enhanced the susceptibility of Staphylococcus aureus”.

In the case of `Clc1ccc(COC(Cn2ccnc2)c2ccc(Cl)cc2Cl)cc1` (centres unmarked) [econazole], the MIC in data set [1] (positive control) was 4 to 16 µg/mL.

Turning to `CC(C)=CCC/C(C)=C/CC1CCCC1=O` (centres unmarked) [apritone], in data set [3], the “intracellular accumulation” value was “promoted the intracellular accumulation”. In addition, the “susceptibility to ciprofloxacin” value in data set [4] is listed as “enhanced the susceptibility of Staphylococcus aureus”.
